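How tested: cells in 96-well plates exposed to compound for 48 hours at five concentrations. At the GI50, growth is halved. At the TGI there is no net growth.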
Experiments:
Assay in all cases: NCI-60 cell line screen, 48 h
CCRF-CEM leukemia = tested on: CCRF-CEM leukemia
UO-31 renal = tested on: UO-31 renal
UACC-62 melanoma = tested on: UACC-62 melanoma
HL-60(TB) leukemia = tested on: HL-60(TB) leukemia
HOP-62 NSCLC = tested on: HOP-62 NSCLC
UACC-257 melanoma = tested on: UACC-257 melanoma
NCI-H460 lung = tested on: NCI-H460 lung
MDA-MB-231 breast = tested on: MDA-MB-231 breast
A549 NSCLC = tested on: A549 NSCLC
U251 CNS = tested on: U251 CNS

SMILES | TGI (CCRF-CEM leukemia) [µM] | TGI (UO-31 renal) [µM] | TGI (UACC-62 melanoma) [µM] | TGI (HL-60(TB) leukemia) [µM] | TGI (HOP-62 NSCLC) [µM] | TGI (UACC-257 melanoma) [µM] | TGI (NCI-H460 lung) [µM] | TGI (MDA-MB-231 breast) [µM] | TGI (A549 NSCLC) [µM] | TGI (U251 CNS) [µM] | GI50 (CCRF-CEM leukemia) [µM] | GI50 (UO-31 renal) [µM] | GI50 (UACC-62 melanoma) [µM] | GI50 (HL-60(TB) leukemia) [µM] | GI50 (HOP-62 NSCLC) [µM] | GI50 (UACC-257 melanoma) [µM] | GI50 (NCI-H460 lung) [µM] | GI50 (MDA-MB-231 breast) [µM] | GI50 (A549 NSCLC) [µM]
c1cc(CSc2ncnc3nc[nH]c23)ccn1 | > 100 | > 100 | > 100 | > 100 | > 100 | > 100 | > 100 | > 100 | > 100 | > 100 | – | – | – | – | – | – | – | – | –
CCCCCCCCCCCCCCCCCCOc1ccccc1COP(=O)(O)OOCC[N+](C)(C)C | 2.02 | 6.76 | 2.82 | 2.19 | 15.4 | 6.45 | 12.5 | 2.26 | 23.6 | – | 0.751 | 1.27 | 0.901 | 0.846 | 2.19 | 1.54 | 2.81 | 0.932 | 5.5
CN1CCN(c2n[nH]c(=O)c3c2nnn3C2CCCCC2)CC1 | > 100 | > 100 | > 100 | > 100 | > 100 | > 100 | > 100 | > 100 | > 100 | > 100 | – | – | – | – | – | – | – | – | –
O=C(/C=C/c1cccc(Br)c1)N1CCN(CCOC(c2ccccc2)c2ccccc2)CC1 | 39.8 | 65.8 | > 100 | 46.6 | > 100 | > 100 | > 100 | > 100 | > 100 | > 100 | – | – | – | – | – | – | – | – | –
CC/C=C\C=C/C(=O)N/C=C/CCC | > 100 | > 100 | > 100 | > 100 | > 100 | > 100 | > 100 | > 100 | > 100 | > 100 | – | – | – | – | – | – | – | – | –
O=C(O)c1ccc(Nc2cnc3cc(C(F)(F)F)ccc3n2)cc1 | > 100 | > 100 | 53.6 | > 100 | > 100 | > 100 | > 100 | > 100 | > 100 | > 100 | – | – | – | – | – | – | – | – | –
CCCCCCCCCCCCc1ccsc1-c1ccc(-c2ccc(-c3sccc3CCCCCCCCCCCC)s2)s1 | > 100 | > 100 | > 100 | > 100 | > 100 | > 100 | > 100 | > 100 | > 100 | > 100 | – | – | – | – | – | – | – | – | –
Cc1cccc(N=N/C(=N\NC(=O)c2cc(Cl)ccc2O)c2ccc(N(CCC#N)CCC#N)cc2C)c1 | 34.3 | 82.9 | 84.6 | 34.4 | > 100 | 97.6 | 79.7 | 58.6 | > 100 | > 100 | – | – | – | – | – | – | – | – | –
CC(=O)Oc1cc(-c2oc3cc(OC(C)=O)c(C4OC(CO)C(O)C(O)C4O)c(OC(C)=O)c3c(=O)c2O)c(OC(C)=O)cc1O (stereo not drawn) | > 100 | > 100 | > 100 | > 100 | > 100 | > 100 | > 100 | > 100 | > 100 | > 100 | – | – | – | – | – | – | – | – | –
COc1ccc(C=O)cc1OS(=O)(=O)C(F)(F)C(F)(F)C(F)(F)C(F)(F)F | 63.1 | > 60.9 | 50.7 | 21.8 | > 79.8 | > 100 | > 93.4 | > 70.3 | > 100 | 66.5 | – | – | – | – | – | – | – | – | –
CC(C)c1c(O[Si](C(C)C)(C(C)C)C(C)C)cc2c(c1O)CC[C@H]1C(C)(C)CCC[C@]21C | > 100 | > 100 | > 100 | 60.4 | > 100 | > 100 | > 100 | > 100 | > 100 | > 100 | – | – | – | – | – | – | – | – | –
S=C(S)NCCN1CCNCC1 | > 100 | > 100 | > 100 | 8.01 | > 100 | 59 | > 100 | > 100 | > 100 | > 100 | – | – | – | – | – | – | – | – | –
C=C1CC[C@@H]2[C@](C)(COC(=O)CCC(=O)O)CCC[C@@]2(C)[C@@H]1CCC1=CC(=O)OC1 | > 100 | > 100 | > 100 | > 100 | > 100 | > 100 | – | > 100 | > 100 | > 100 | – | – | – | – | – | – | – | – | –
CON[N+]([O-])=NC(C)C | > 100 | > 100 | > 100 | > 100 | > 100 | > 100 | > 100 | > 100 | > 100 | > 100 | – | – | – | – | – | – | – | – | –
CN1CCc2c(sc3ncn(Nc4ccc(F)cc4)c(=N)c23)C1 | > 100 | – | > 100 | > 100 | > 100 | > 100 | > 100 | > 100 | > 100 | > 100 | – | – | – | – | – | – | – | – | –
O=C1c2ccccc2C(=O)N1NC1=NCCN1 | > 100 | – | > 100 | > 100 | > 100 | > 100 | > 100 | > 100 | > 100 | > 100 | – | – | – | – | – | – | – | – | –
CC1CC(=O)Nc2ccccc2N1C(=O)C1CC1 (stereo not drawn) | > 100 | > 100 | – | > 100 | > 100 | > 100 | > 100 | > 100 | > 100 | > 100 | – | – | – | – | – | – | – | – | –
CCN(CC)CCSc1c(C(C)=O)c(=O)n(-c2ccccc2)c(=S)n1-c1ccccc1 | > 100 | 3.86 | 27.7 | 8.71 | 45.3 | 23.4 | 50.1 | 26.9 | 30 | 33.1 | – | – | – | – | – | – | – | – | –
NC1NCCC(=O)N1CCc1c[nH]c2ccccc12 (stereo not drawn) | 51.9 | > 100 | 37.6 | 44.7 | 43.2 | 32.1 | 31.2 | 34.4 | 69.3 | > 100 | – | – | – | – | – | – | – | – | –
CC1(C)[C@H]2Cc3cc4nc5ccccn5c4cc3[C@@H]1C2 | 75.1 | 26.9 | 29.9 | 57.2 | 39.7 | 34.2 | 38.8 | 27.1 | 40.7 | 34.2 | – | – | – | – | – | – | – | – | –
COC(=O)[C@H](Cc1ccccc1)NC(=O)N(CCNC(=O)OC(C)(C)C)c1ccccc1 | > 100 | > 100 | > 100 | > 100 | > 100 | – | > 100 | > 100 | > 100 | > 100 | – | – | – | – | – | – | – | – | –

Reference: PubChem BioAssay (NCI)
